The results in this text go back to PubChem BioAssay (NCI).

Among the test systems are RXF 393 renal; CCRF-CEM leukemia; HT29 colon; OVCAR-5 ovarian; SNB-19 CNS; OVCAR-3 ovarian; MDA-N; HCT-116 colon; EKVX NSCLC; KM12 colon.
Common to all, as to test: growth of human tumour cells (NCI), 48 h

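Cells were grown in 96-well plates and exposed to each compound for 48 hours at five concentrations; endpoints were interpolated linearly between bracketing concentrations, or set to the highest concentration if not reached. GI50: concentration for 50% inhibition of growth. Definition used: TGI = concentration required for complete inhibition of growth.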

Turning to `CC(C)(C)OC(=O)NCC(=O)NC1C/C(=N\O)c2sccc21` (stereo unspecified), the TGI in the test on RXF 393 renal, with CCRF-CEM leukemia, in the test on HT29 colon, with OVCAR-5 ovarian, in the test with SNB-19 CNS and in the test with OVCAR-3 ovarian was above 100 µM each time. Besides, the TGI with MDA-N, with HCT-116 colon and with EKVX NSCLC was above 100 µM throughout.
As for `CC(=O)c1ccc(N2CCN(C3=CC(=O)c4c(O)ccc(O)c4C3=O)CC2)cc1`, the TGI in the test on RXF 393 renal, in the test with CCRF-CEM leukemia, in the test on HT29 colon, in the test with OVCAR-5 ovarian, in the test with KM12 colon and with SNB-19 CNS was above 100 µM throughout. Further, the TGI in the test on OVCAR-3 ovarian, in the test with HCT-116 colon and in the test on EKVX NSCLC was above 100 µM in each case.
Consider `COc1ccc2c(c1)CC1Cc3ccccc3CCN1C2` (stereo unspecified), for which the TGI in the test on RXF 393 renal, in the test on CCRF-CEM leukemia, in the test on HT29 colon, in the test with OVCAR-5 ovarian, in the test with KM12 colon and in the test with SNB-19 CNS was above 100 µM each time. Also, the TGI in the test with OVCAR-3 ovarian, in the test on MDA-N, in the test with HCT-116 colon and with EKVX NSCLC was above 100 µM each time.
Take `CCNc1ncnc2c1nnn2CC`: the TGI with RXF 393 renal, in the test on CCRF-CEM leukemia, with HT29 colon, in the test with KM12 colon, in the test on SNB-19 CNS and with OVCAR-3 ovarian was above 100 µM each time. Besides, the TGI in the test on MDA-N, in the test with HCT-116 colon and in the test with EKVX NSCLC was above 100 µM throughout.
Take `CN(/N=N/c1nc[nH]c1C(N)=O)C1CCCCC1`: the TGI with RXF 393 renal, with CCRF-CEM leukemia, with HT29 colon, with OVCAR-5 ovarian, in the test on KM12 colon and with SNB-19 CNS was above 100 µM throughout. Besides, the TGI in the test with OVCAR-3 ovarian, in the test with HCT-116 colon and in the test on EKVX NSCLC was above 100 µM throughout.
With `CNC(=S)N/N=C(\C)c1nc2ncccc2[nH]1`, the TGI in the test with RXF 393 renal, in the test with CCRF-CEM leukemia, with HT29 colon, with OVCAR-5 ovarian, with KM12 colon and in the test with SNB-19 CNS was above 100 µM in each case. Further, the TGI was 75.5 µM in the test with OVCAR-3 ovarian, above 100 µM in the test with MDA-N, above 100 µM in the test with HCT-116 colon and above 100 µM with EKVX NSCLC.
As for `CCC(=O)NC(OCC1(CC)COC1)(C(F)(F)F)C(F)(F)F`, the TGI with RXF 393 renal, in the test with CCRF-CEM leukemia, in the test on HT29 colon, in the test on OVCAR-5 ovarian, in the test with KM12 colon and in the test with SNB-19 CNS was above 100 µM in each case. The TGI in the test with OVCAR-3 ovarian, with MDA-N, with HCT-116 colon and in the test with EKVX NSCLC was above 100 µM throughout.
In the case of `COc1ccc2c(c1OC)C(=O)O[C@@H]2[C@H]1c2cc3c(cc2CCN1C)OCO3`, the TGI in the test on HT29 colon, with OVCAR-5 ovarian, in the test on KM12 colon, in the test with SNB-19 CNS, in the test with OVCAR-3 ovarian and with MDA-N was above 100 µM in each case. The TGI with HCT-116 colon and in the test on EKVX NSCLC was above 100 µM throughout.
Take `COC(=O)C1=C(C)N(NC(=O)c2ccccc2)C2(O)CCCC(=O)C12C` (stereo unspecified): the TGI in the test with RXF 393 renal, in the test on HT29 colon, in the test with OVCAR-5 ovarian, in the test on KM12 colon, in the test on SNB-19 CNS and in the test with OVCAR-3 ovarian was above 100 µM each time. Moreover, the TGI with HCT-116 colon was above 100 µM.
For the compound `COc1cc(OC)cc(-c2n/c(=C\c3c(O)[nH]c4ccc(Cl)cc34)cc3c2=Nc2ccccc2-3)c1`, the GI50 is 6.05 µM with RXF 393 renal; 3.34 µM in the test with CCRF-CEM leukemia; 2.72 µM in the test with HT29 colon; 20.5 µM with OVCAR-5 ovarian; 3.95 µM in the test on KM12 colon; 3.54 µM with SNB-19 CNS. In addition, the results for the GI50 in the test with OVCAR-3 ovarian, with HCT-116 colon and in the test on EKVX NSCLC were 2.46 µM, 1.9 µM and 13.6 µM, respectively. The TGI is 21.4 µM in the test on RXF 393 renal; above 100 µM in the test with CCRF-CEM leukemia; 6.22 µM with HT29 colon; 63.8 µM in the test on OVCAR-5 ovarian; 14.1 µM in the test on KM12 colon; 16.1 µM in the test on SNB-19 CNS. Besides, the TGI with OVCAR-3 ovarian is 5.22 µM; with HCT-116 colon, 3.43 µM; in the test with EKVX NSCLC, 37.8 µM.
With `C=CCC1(CC)C(=O)NC(=O)NC1=O`, the TGI with RXF 393 renal, in the test with CCRF-CEM leukemia, in the test with KM12 colon, in the test on SNB-19 CNS, in the test with OVCAR-3 ovarian and with HCT-116 colon was above 100 µM throughout. The TGI with EKVX NSCLC was above 100 µM.
